Test results reported in patent publication US20240050577A1, “CDK INHIBITORS AND PHARMACEUTICAL USES THEREOF” (RISEN (SUZHOU) PHARMA TECH CO., LTD., priority 2022, published 2024).
Where two headings read alike, the source gives them in different places.

Assays:
Format in all cases: cell-based
[1] = biological target: T1, CDK1 protein (Homo sapiens, UniProt P06493); assay: CDK1 protein degradation in OVCAR3 cells (Western blot); details: 24 h; for DC50: read-out: DC50 CDK1 (half-maximum degradation concentration); for percent CDK1 protein degradation at 0.05 µM: OVCAR-3, 50 nM test compound, read-out: level of CDK1 protein degradation
T1 construct: host or cells: OVCAR3
T1 sequence (P06493 whole entry): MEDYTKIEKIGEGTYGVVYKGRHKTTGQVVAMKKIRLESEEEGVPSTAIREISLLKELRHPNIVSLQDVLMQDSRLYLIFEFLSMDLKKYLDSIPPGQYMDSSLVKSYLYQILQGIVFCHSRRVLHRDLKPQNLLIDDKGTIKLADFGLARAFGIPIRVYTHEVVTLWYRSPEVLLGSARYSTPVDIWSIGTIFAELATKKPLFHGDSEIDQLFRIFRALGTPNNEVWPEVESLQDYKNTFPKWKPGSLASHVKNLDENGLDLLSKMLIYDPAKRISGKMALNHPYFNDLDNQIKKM
Protocol: (§1) OVCAR3 (Cobioer, CBP60294) cell line of exponential growth phase was inoculated on a 6-well cell culture plate (Corning, 3516) according to 3E5/well scheme; and the plate was incubated overnight in a 5%-carbon dioxide incubator at 37° C. The next day, the test compound was dissolved in DMSO (Sigma, RNBF5902) to prepare a 10-mM concentration stock solution. The stock solution was diluted with complete medium, giving working solutions of different concentrations. Working solution was added into the corresponding wells of the orifice plate. The plate was placed in a 5% carbon dioxide incubator, set at 37° C., and incubated for 24 h. The plate was removed from the incubator, and the cells were washed twice with precooled PBS (Gibco, 14190250), followed by addition of 40 μL RIPA lysis buffer (containing protease inhibitor (Invitrogen™, AM2696)) to each well. Adherent cells were scraped off with a cell scraper, and the cell lysate was transferred to a 1.5 mL centrifuge tube, and the tube was placed on ice for 30 minutes. After completion of cell lysis, the tube was centrifugated for 10 min at 4° C., 14000 rpm. The supernatant was transferred into a new 1.5-mL centrifuge tube, and the new tube was placed on ice, followed by measurement of the protein concentration with BCA protein detection kit (Thermo Fisher, 23225). A mixture of cell lysate (40 μL) and loading buffer (10 μL, 5×SDS (Beyotime, P0015L)) was placed into a water bath at 95° C. for 10 min to denature the protein. The denatured protein sample, 30 μL/well, was added into a corresponding well of 4-20% Bis-Tris gel (Kingsley, M00657). The initial voltage was adjusted to 80-V and run for 30 min, followed by voltage increased to 120 V, and run for another 40 min, until the strip had run to the appropriate position. After electrophoresis, iBlot2 (Life Technologies, IB21001) was used to transfer the film under the condition of 20 V and 7 min. At the end of film transfer, 5% skimmed milk powder was sealed at room temperature for 2 h, and then TBST (Thermo Scientific, 28360) buffer solution was used to rinse for three times, 10 minutes each time. Skimmed milk powder (5%) was diluted with the first antibody in the appropriate proportion, and the working solution of the first antibody was prepared and incubated overnight at 4° C. After the incubation of the first antibody, the membrane was washed three times at room temperature with TBST buffer solution, 10 minutes each time; and the second antibody was incubated with 5% skimmed milk powder at room temperature for 1 h. After washing the film for three times with TBST, ECL color developing solution (Thermofisher 34095) was added, and an image was taken on a Biorad Chemi Doc gel imager. The band gray value was analyzed (Image Lab).
(§2) Symbols of “−”, “+”, “++”, and “+++” indicate that the degradation level of CDK protein induced by test compound was 10% or less, 11 to 30%, 31 to 60%, and greater than 60%, respectively.
(§3) Half-maximum degradation concentrations (DC50s) of test compounds were calculated using GraphPad Prism and their values are shown in Table 4. Symbols of “++++”, “+++”, “++”, “+” and “−” represent DC50s equal or less than 10 nM, 11-50 nM, 51-100 nM, 101-200 nM, and >200 nM, respectively.

[2] = biological target: T2, CDK2 protein (Homo sapiens, UniProt P24941); assay: CDK2 protein degradation in OVCAR3 cells (Western blot); details: 24 h; for level of CDK2 protein degradation: 50 nM test compound; for DC50: read-out: DC50 CDK2 (half-maximum degradation concentration)
T2 construct: host or cells: OVCAR3
Protocol: as §1, §2, §3

[3] = biological target: T3, CDK4 protein (Homo sapiens, UniProt P11802); assay: CDK4 protein degradation in OVCAR3 cells (Western blot); details: 24 h; for DC50: read-out: DC50 CDK4 (half-maximum degradation concentration); for percent CDK4 protein degradation at 0.05 µM: OVCAR-3, 50 nM test compound, read-out: level of CDK4 protein degradation
T3 construct: host or cells: OVCAR3
T3 sequence (P11802 whole entry): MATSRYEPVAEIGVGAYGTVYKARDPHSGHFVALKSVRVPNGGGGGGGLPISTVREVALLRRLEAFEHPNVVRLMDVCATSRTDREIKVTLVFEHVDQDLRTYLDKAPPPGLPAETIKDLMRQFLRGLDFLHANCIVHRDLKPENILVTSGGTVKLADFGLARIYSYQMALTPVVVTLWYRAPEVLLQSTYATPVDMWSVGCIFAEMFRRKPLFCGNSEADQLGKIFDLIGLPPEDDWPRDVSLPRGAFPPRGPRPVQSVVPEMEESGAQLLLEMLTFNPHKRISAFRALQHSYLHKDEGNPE
Protocol: as §1, §2, §3

[4] = biological target: T4, CDK6 protein (Homo sapiens, UniProt Q00534); assay: CDK6 protein degradation in OVCAR3 cells (Western blot); details: 24 h; for DC50: read-out: DC50 CDK6 (half-maximum degradation concentration); for percent CDK6 protein degradation at 0.05 µM: OVCAR-3, 50 nM test compound, read-out: level of CDK6 protein degradation
T4 construct: host or cells: OVCAR3
T4 sequence (Q00534 whole entry): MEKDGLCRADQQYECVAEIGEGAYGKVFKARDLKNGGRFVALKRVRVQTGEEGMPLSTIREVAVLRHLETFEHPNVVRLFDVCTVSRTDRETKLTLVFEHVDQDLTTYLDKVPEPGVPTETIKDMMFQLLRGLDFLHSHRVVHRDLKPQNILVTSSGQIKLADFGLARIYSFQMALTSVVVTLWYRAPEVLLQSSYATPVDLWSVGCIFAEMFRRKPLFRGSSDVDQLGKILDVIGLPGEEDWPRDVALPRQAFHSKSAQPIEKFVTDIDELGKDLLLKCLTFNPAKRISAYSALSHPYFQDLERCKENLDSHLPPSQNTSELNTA
Protocol: as §1, §2, §3

[5] = tested on: OVCAR3 cells; assay: Cell proliferation study (Cell Titer Glo, 72 h); details: read-out: IC50, inhibitory effect on cellular proliferation
Protocol: OVCAR3 (Cobioer, CBP60294) cell line in logarithmic growth phase was used for these experiments. The cell density was adjusted to 1.1×10^4/mL and the cells were inoculated into a 96-well cell culture plate (Corning, 3599), 95 μL per well (the number of cells per well was 1×10^3). The culture plate was placed in an incubator, with 5% carbon dioxide, at 37° C. and incubated overnight. On the next day, a 10 mM stock solution of test compound was prepared in DMSO (Sigma, RNBF5902). After gradient dilution, a series of working solutions with different concentrations of test compound was prepared using complete medium. Working solution was added into the corresponding wells of the orifice plate, and the plate was placed in a 5% carbon dioxide incubator and cultivated at 37° C. for 72 h, and then removed from the incubator. To each well was added 50 μL Cell Tier Glo (Promega, G7573), and the plate was incubated at room temperature for 10 min, followed by luminescence detection with an enzyme marker. The inhibition curve was obtained with GraphPad 7.0 software using four-parameter equation.

[6] = Homo sapiens, OVCAR-3, luminescence

| SMILES | DC50 [1] [nM] | percent CDK1 protein degradation at 0.05 µM [1] [%] | level of CDK2 protein degradation [2] | DC50 [2] [nM] | DC50 [3] [nM] | percent CDK4 protein degradation at 0.05 µM [3] [%] | DC50 [4] [nM] | percent CDK6 protein degradation at 0.05 µM [4] [%] | IC50 [5, 6] [nM] | IC50 ([5]; luminescence) [nM] |
| --- | --- | --- | --- | --- | --- | --- | --- | --- | --- | --- |
| Cc1nc2c(F)cc(-c3nc(NC4CCN(S(=O)(=O)C5CCN(CC6CC7(C6)CN(c6cc8c(cc6F)C(=O)N(C6CCC(=O)NC6=O)C8=O)C7)CC5)CC4)ncc3F)cc2n1C(C)C (stereo not drawn) [Compound 88] | 11 to 50 | 31 to 60 | +++ (greater than 60%) | 101 to 200 | > 200 | ≤ 10 | > 200 | > 60 | < 100 | – |
| Cc1nc2c(F)cc(-c3nc(NC4CCN(S(=O)(=O)C5CCN(C6CCN(C7CN(c8cc9c(cc8F)C(=O)N(C8CCC(=O)NC8=O)C9=O)C7)CC6)CC5)CC4)ncc3F)cc2n1C(C)C (stereo not drawn) [Compound 83] | 101 to 200 | 31 to 60 | ++ (31 to 60%) | 101 to 200 | > 200 | ≤ 10 | 101 to 200 | > 60 | < 100 | – |
| Cc1nc2c(F)cc(-c3nc(NC4CCN(S(=O)(=O)C5CCN(CC6CCN(C7CN(c8cc9c(cc8F)C(=O)N(C8CCC(=O)NC8=O)C9=O)C7)CC6)CC5)CC4)ncc3F)cc2n1C(C)C (stereo not drawn) [Compound 80] | > 200 | ≤ 10 | ++ (31 to 60%) | > 200 | > 200 | ≤ 10 | < 10 | > 60 | < 100 | – |
| C[C@@]1(O)CCC[C@H]1n1c(=O)ccc2cnc(NC3CCN(S(=O)(=O)C4CCN(CC5CCN(C6CN(c7cc8c(cc7F)C(=O)N(C7CCC(=O)NC7=O)C8=O)C6)CC5)CC4)CC3)nc21 (stereo partly drawn) [Compound 95] | 11 to 50 | > 60 | ++ (31 to 60%) | 51 to 100 | > 200 | 31 to 60 | < 10 | > 60 | 101 to 1000 | – |
| C[C@@]1(O)CCC[C@H]1n1c(=O)ccc2cnc(NC3CCN(S(=O)(=O)C4CCN(C5CC6(CCN(c7cc8c(cc7F)C(=O)N(C7CCC(=O)NC7=O)C8=O)CC6)C5)CC4)CC3)nc21 (stereo partly drawn) [Compound 94] | < 10 | > 60 | +++ (greater than 60%) | < 10 | > 200 | 11 to 30 | > 200 | > 60 | 1000 to 5000 | – |
| Cc1nc2c(F)cc(-c3nc(NC4CCN(S(=O)(=O)C5CCN(C6CN(C7CCN(c8cc9c(cc8F)C(=O)N(C8CCC(=O)NC8=O)C9=O)CC7)C6)CC5)CC4)ncc3F)cc2n1C(C)C (stereo not drawn) [Compound 79] | < 10 | > 60 | +++ (greater than 60%) | < 10 | > 200 | ≤ 10 | < 10 | > 60 | < 100 | – |
| C[C@@]1(O)CCC[C@H]1n1c(=O)c(C(F)F)cc2cnc(NC3CCN(S(=O)(=O)C4CCN(CC5CCN(C6CN(c7cc8c(cc7F)C(=O)N(C7CCC(=O)NC7=O)C8=O)C6)CC5)CC4)CC3)nc21 (stereo partly drawn) [Compound 37] | < 10 | > 60 | +++ (greater than 60%) | < 10 | > 200 | ≤ 10 | > 200 | > 60 | < 100 | – |
| C[C@@]1(O)CCC[C@H]1n1c(=O)ccc2cnc(Nc3ccc(S(=O)(=O)C4CCN(CC5CCN(c6cc7c(cc6F)C(=O)N(C6CCC(=O)NC6=O)C7=O)CC5)CC4)cc3)nc21 (stereo partly drawn) [Compound 23] | – | – | – | – | – | – | – | – | > 10000 | – |
| CC(C)N1CCOc2c(F)cc(-c3nc(Nc4ccc(C5CCN(CCCCCCOc6cccc7c6C(=O)N(C6CCC(=O)NC6=O)C7=O)CC5)cn4)ncc3F)cc21 (stereo not drawn) [Compound 3] | – | – | – | – | – | – | – | – | – | > 10000 |
| Cc1nc2c(F)cc(-c3nc(Nc4ccc(S(=O)(=O)C5CCN(CC6CCN(C7CN(c8cc9c(cc8F)C(=O)N(C8CCC(=O)NC8=O)C9=O)C7)CC6)CC5)cc4)ncc3F)cc2n1C(C)C (stereo not drawn) [Compound 65] | – | – | – | – | – | – | – | – | 101 to 1000 | – |
| CC(C)N1CCOc2c(F)cc(-c3nc(Nc4ccc(C5CCN(CCCCCCOc6cccc7c6C(=O)N(C6CCC(=O)NC6=O)C7=O)CC5)cn4)ncc3F)cc21 (stereo not drawn) [Compound 28] | – | – | – | – | – | – | – | – | > 10000 | – |
| Cc1nc2c(F)cc(-c3nc(Nc4ccc(S(=O)(=O)NCCOCCOCCNc5cccc6c5C(=O)N(C5CCC(=O)NC5=O)C6=O)cc4)ncc3F)cc2n1C(C)C (stereo not drawn) [Compound 49] | – | – | – | – | – | – | – | – | 1000 to 5000 | – |
| CC(C)N1CCOc2c(F)cc(-c3nc(Nc4ccc(C5CCN(C(=O)COCCOCCNc6cccc7c6C(=O)N(C6CCC(=O)NC6=O)C7=O)CC5)cn4)ncc3F)cc21 (stereo not drawn) [Compound 5] | – | – | – | – | – | – | – | – | < 100 | – |
| Cc1nc2c(F)cc(-c3nc(Nc4ccc(S(=O)(=O)N5CCN(C6CCN(C7CN(c8cccc9c8C(=O)N(C8CCC(=O)NC8=O)C9=O)C7)CC6)CC5)cc4)ncc3F)cc2n1C(C)C (stereo not drawn) [Compound 56] | – | – | – | – | – | – | – | – | 1000 to 5000 | – |
| CC(C)N1CCOc2c(F)cc(-c3nc(Nc4ccc(S(N)(=O)=O)cc4)ncc3F)cc21 [Compound 31] | – | – | – | – | – | – | – | – | 101 to 1000 | – |
| Cc1nc2c(F)cc(-c3nc(NC4CCN(S(=O)(=O)C5CN(CC6CCN(c7cc8c(cc7F)C(=O)N(C7CCC(=O)NC7=O)C8=O)CC6)C5)CC4)ncc3F)cc2n1C(C)C (stereo not drawn) [Compound 100] | – | – | – | – | – | – | – | – | 101 to 1000 | – |
